These results are taken from US5506102A (priority 1993, dated 1996).

The structures appear in SMILES notation.

This assay addresses T1, PR-A (Homo sapiens, UniProt P06401).
T1 sequence (P06401 165-933): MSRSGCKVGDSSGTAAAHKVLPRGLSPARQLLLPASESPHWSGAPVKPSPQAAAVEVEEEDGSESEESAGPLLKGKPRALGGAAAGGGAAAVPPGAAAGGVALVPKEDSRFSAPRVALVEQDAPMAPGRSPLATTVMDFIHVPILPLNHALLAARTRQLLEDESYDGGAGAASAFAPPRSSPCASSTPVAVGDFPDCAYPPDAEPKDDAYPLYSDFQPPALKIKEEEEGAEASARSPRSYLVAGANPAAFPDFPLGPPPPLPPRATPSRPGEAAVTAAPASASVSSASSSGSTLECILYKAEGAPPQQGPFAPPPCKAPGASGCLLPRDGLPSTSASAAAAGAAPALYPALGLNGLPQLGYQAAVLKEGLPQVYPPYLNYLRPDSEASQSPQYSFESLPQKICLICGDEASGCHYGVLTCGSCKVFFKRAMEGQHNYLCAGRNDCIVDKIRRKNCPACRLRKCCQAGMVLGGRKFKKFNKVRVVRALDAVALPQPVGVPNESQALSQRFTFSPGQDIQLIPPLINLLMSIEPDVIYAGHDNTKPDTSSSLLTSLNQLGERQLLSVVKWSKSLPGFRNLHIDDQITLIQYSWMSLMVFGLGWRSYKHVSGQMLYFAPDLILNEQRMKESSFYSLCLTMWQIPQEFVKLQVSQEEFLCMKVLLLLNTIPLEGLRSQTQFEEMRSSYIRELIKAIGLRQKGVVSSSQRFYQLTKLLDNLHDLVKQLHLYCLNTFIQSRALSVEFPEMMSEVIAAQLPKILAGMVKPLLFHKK
Kind of assay: PR-A regulation of TAT promoter. It is filed as cell-based. Also noted: TAT2950-LUC in HeLa, PRE2 tk-LUC in CV-1/HepG2. The following applies: data not shown. Here is the method:
FIGS. 4A-4B are a series of graphs showing CV-1 ([…]) or HepG2 (FIG. 4B) cells that were transiently transfected with either […] of phPR-B or phPR-A alone, or phPR-B in the presence of increasing concentrations of phPR-A, together with 5 µg/ml of the PRE2 tk-LUC reporter and 5 µg/ml of pCH110 as an internal control. HeLa cells (FIG. 4C) were transfected with either phPR-B or phPR-A together with 5 µg/ml of the pTAT2950 reporter and 5 µg/ml of pCH110 as an internal control. […] The relative luciferase activity is calculated by dividing the normalized luciferase value at a given point by that obtained in the absence of transfected receptor or ligand. The data shown represent the mean +/- average deviation from the mean of triplicate estimations;
The 2.9 Kb fragment resulting from the digestion of the pTAT-CAT plasmid, and the 6.7 Kb fragment, containing the luciferase gene and the backbone resulting from MMTV-LUC digestion products, were ligated to create the plasmid TAT2950-LUC.
Cells were seeded in 12-well, 96-well or 10 cm tissue culture plates. […] 20 μg of DNA/ml of transfection buffer were used in each transfection reaction. […]

Regarding `CC(=O)[C@H]1CC[C@H]2[C@@H]3CCC4=CC(=O)CC[C@]4(C)[C@H]3CC[C@]12C` [progesterone], the TAT promoter response result (CV-1, PR-A) is “unresponsive to either receptor subtype”. Under “HepG2, phPR-A”, the “TAT promoter response to progesterone” value was “responded to progesterone”.
